Data as given in US12678488B2, “Batch management method for improving farrowing rate or number of piglets born alive in swine” (priority 2024, dated 2026).
“Also recorded” adds a separate entry of the source.

Columns and labels:
[1] = system: Landrace x Large White binary sows; assay: Number of ovulated oocytes (corpora lutea) in gilts slaughtered 16 days after mating (Example 4); format: in vivo, pigs; conditions: single low dose 12 μg/kg·BW, compared with batch farrowing with FTAI
Protocol: The breed of the gilts used in this experiment was Landrace x Large White binary sows, the gilts were randomly divided into the following 3 groups, and the treatment method for each group was as follows:
batch farrowing with FTAI: the gilts were fed with an altrenogest oral solution at 20 mg/gilt at the same time every day, for 18 days; PMSG at 1000 IU/gilt was injected intramuscularly 42 h after the last feeding with altrenogest, GnRH at 100 μg/gilt was injected intramuscularly after another 80 h, the first timed insemination was performed 24 h after the injection of GnRH, and the second timed insemination was performed after 24 h.
Treatment group 1 (batch farrowing with FTAI, with supplementing with 1-[bis(4-cyanophenyl)methyl]-1,2,4-triazole (12 μg/kg·BW, orally in a single dose): The hormone treatment and mating schemes for gilts were the same as those for gilts in the batch farrowing with FTAI. The gilts were administered orally once with 1-[bis(4-cyanophenyl)methyl]-1,2,4-triazole at 12 μg/kg·BW 8 h after the injection of PMSG.
The gilts in the batch farrowing with FTAI and the gilts in the batch farrowing with FTAI supplementing once with 1-[bis(4-cyanophenyl)methyl]-1,2,4-triazole (12 μg/kg·BW) were slaughtered. The gilts were slaughtered 16 days after mating, with 4 gilts slaughtered per group. […]

ICR female mice = assay: Mouse batch farrowing with FTAI model: embryo implantation number, embryo spacing, number born alive; format: in vivo; conditions: for embryo spacing upon embryo implantation: compared with batch farrowing model group
Protocol: 6-8-week-old ICR female mice acclimatized to the laboratory mouse house environment and in a good condition were selected and divided into a batch farrowing with FTAI model group, a batch farrowing with FTAI+low-dose model group, and a batch farrowing with FTAI+high-dose model group, and 10IU PMSG was injected at 17:00 pm. At 6-8 hours after a single injection of PMSG to the batch farrowing with FTAI+low-dose model group and the batch farrowing with FTAI+high-dose model group, respectively, the groups were supplemented with a low dose of 1-[bis(4-cyanophenyl)methyl]-1,2,4-triazole (10 μg/kg·BW) and a high dose of 1-[bis(4-cyanophenyl)methyl]-1,2,4-triazole (50 μg/kg·BW), respectively, and at 46-48 hours after the injection of PMSG, the groups were then injected with prepared 10IU GnRH and then put into a breeding male mouse cage. At 7:00-9:00 the next morning, vaginal plugs were examined, and this day was recorded as day 1 (D1) of pregnancy. In the afternoon of day 5 (D5) of pregnancy, 0.4 ml of 1% Chicago blue-normal saline solution was injected into model mice at the caudal vein, and after 3 minutes of systemic circulation, the mice were sacrificed by means of cervical dislocation, the abdominal cavity was immediately cut open, and the abdominal aorta was cut for bleeding. Then, uteri and ovaries were removed with surgical ophthalmic scissors, immersed in physiological saline for washing, and then put into a 4% paraformaldehyde fixation solution for 5 minutes of morphological fixation. Blue dots on the uterus were recorded as embryo implantation sites, the number of implantation sites was counted, and patterns of embryo spacing in different groups were drawn.
For some of the mice treated above, no intermediate test was done, and after the mice gave birth, the number born alive in each group was counted.

[2] = low dose 10 μg/kg·BW, compared with batch farrowing with FTAI model group

N#Cc1ccc(C(c2ccc(C#N)cc2)n2cncn2)cc1 [1-[bis(4-cyanophenyl)methyl]-1,2,4-triazole]
number of ovulated oocytes [1]: no significant effect | embryo spacing upon embryo implantation (ICR female mice; high dose 50 μg/kg·BW): no effect on increasing the embryo spacing; also recorded: could not alleviate the overcrowding of embryos | number born alive (ICR female mice; high dose 50 μg/kg·BW, compared with batch farrowing with FTAI model group): reduced number born alive; also recorded: decreased number born alive | embryo spacing upon embryo implantation (ICR female mice; low dose 10 μg/kg·BW): increased embryo spacing; also recorded: increase the spacing between embryos | embryo implantation number (ICR female mice; [2]): no significant effect; also recorded: no significant difference | number born alive (ICR female mice; [2]): significantly increase the number born alive
